Data taken from publication PMC9574860, “Chemical Toolkit for PARK7: Potent, Selective, and High-Throughput” (Journal of Medicinal Chemistry, 2022).

Columns and labels:
Set-up in all cases: GST (N, cleaved yes); made in house; host or cells: E. coli BL21(DE3) Rosetta2
PARK7 [1] = target: T1, PARK7 (Homo sapiens, UniProt Q99497); assay: Gel-based competition assay with probe 8RK59, PARK7 band; type: biochemical
T1 sequence (Q99497 1-189): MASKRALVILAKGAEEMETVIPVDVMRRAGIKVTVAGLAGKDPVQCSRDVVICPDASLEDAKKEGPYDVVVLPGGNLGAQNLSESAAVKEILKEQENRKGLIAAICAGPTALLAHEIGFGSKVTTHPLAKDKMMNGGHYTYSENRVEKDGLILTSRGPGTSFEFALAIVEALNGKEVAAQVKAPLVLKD
Protocol: To assess the inhibitory potency and selectivity of these compounds toward PARK7 and UCHL1, we performed a gel-based competition assay (Figure 3A).[36] A mixture of equal amounts of PARK7 and UCHL1 (1 μM) was treated with each of the synthesized compounds (2 μM) for 1 h, followed by incubation with fluorescent probe 8RK59 (2 μM) for 30 min. Samples were resolved by SDS-PAGE, and the gel was scanned for fluorescence. Inhibition of PARK7 or UCHL1 is reflected by the disappearance of their corresponding bands (Figure 3B). […] The inhibition potential of JYQ-88 against PARK7 was assessed in a similar assay where PARK7 was incubated with a serial dilution of JYQ-88 before treatment with probe 8RK59 (Figure 3C). A clear inhibition is visible at 0.5 μM, and full inhibition is achieved between 1 and 2 μM. […] The selectivity of JYQ-88 between UCHL1 and PARK7 was further confirmed in a direct competition assay between equal amounts of PARK7 and UCHL1 (Figure 3F). PARK7 inhibition was observed starting from 0.5 μM JYQ-88, whereas inhibition of UCHL1 was only detected at 20 μM. Since JYQ-88 and 8RK64 are enantiomers, we assumed that the interactions with PARK7 should be similar. To investigate how the chiral center influences the selectivity, we solved the crystal structure of the PARK7−JYQ-88 complex with 1.42 Å resolution (Figure 3G, Table S1, PDB 7PA3). The global positioning of the inhibitor in between the two α-helices was similar to that for 8RK64. […] This way, the thiazolo-pyridine part of JYQ-88 is bound in a similar manner as 8RK64 and the earlier observed interactions are largely the same. The formation of the isothiourea moiety, stabilized by the interaction with Glu18, and the interaction between the thiazole amine and the amide NH2 of the Asn76 side chain are still present. However, the interaction between the azidoacetyl carbonyl with the Leu128 backbone carbonyl can no longer be observed due to the rotation of the azidoacetyl moiety. The Lys132 residue also seems to have rotated (compared to Figure 2C).
The assay was performed in Tris buffer as described above.

PARK7 [2] = target: T1, PARK7; assay: DiFMUAc PARK7 activity assay; type: biochemical
Protocol: Compounds were transferred using a Labcyte Echo550 acoustic dispenser to obtain a 12-point serial dilution of 0.001 to 100 μM. Next, PARK7 (15 μL, final concentration of 0.1 μM) was dispensed with a Biotek MultiFlowFX liquid dispenser and incubated for 1 h, followed by dispensing the substrate DiFMUAc (5 μL, final concentration of 300 μM). The fluorescence intensity (FI) signal was monitored with a BMG Labtech PHERAstar plate reader (λex/em 350/450 nm) for 1 h.
The validation was performed in the PBS buffer with a reaction volume of 20 μL per well in triplicate. […] Next, PARK7 (15 μL, final concentration 0.1 μM) was dispensed with a Biotek MultiFlowFX liquid dispenser and incubated for 2 h, followed by dispensing the substrate DiFMUAc (5 μL, final concentration 300 μM). The FI signal was monitored with a BMG Labtech PHERAstar plate reader (λex/em 350/450 nm) for 1 h. The increase of FI signal compared with reference controls was used to calculate the remaining enzyme activity. The inhibition percentage of these 22 compounds was plotted as a heatmap using GraphPad Prism 9.0.1 software. Color gradients indicate inhibition percentage, no inhibiton (white) and full inhibition (blue).

PARK7 [3] = target: T1, PARK7; assay: FP assay with Rhodamine110 probe JYQ-107 (IC50 and hit validation); type: binding; conditions: PARK7 0.2 μM, 1 h preincubation, JYQ-107 20 nM

- Concentration at which clear inhibition of PARK7 is visible (PARK7 [1]; PARK7 1 μM, serial dilution of inhibitor, then 8RK59, Figure 3C): 0.5 µM
- Inhibition of PARK7 (disappearance of 8RK59-labeled band) (PARK7 [1]; compound 2 μM, 1 h, PARK7 and UCHL1 1 μM each, then 8RK59 2 μM 30 min, Figure 3B): almost complete inhibition
- Concentration from which PARK7 inhibition was observed (PARK7 [1]; direct competition, equal amounts of PARK7 and UCHL1, Figure 3F): 0.5 µM
- Inhibitory potency toward PARK7 compared with 8RK64 (PARK7 [1]; gel-based PARK7 inhibition assays, Figures 3C and S2): slightly more potent
- IC50 (PARK7 [2]; DiFMUAc assay, PARK7 0.1 μM, 1 h preincubation, DiFMUAc 300 μM): 130 nM
- Fold higher potency toward PARK7 than UCHL1 (PARK7 [2]; PARK7 IC50 (DiFMUAc) vs UCHL1 IC50): 85 fold
- IC50 (PARK7 [3]): 240 nM
Compound: N#CN1CC[C@@H](C(=O)Nc2nc3c(s2)CN(C(=O)CN=[N+]=[N-])CC3)C1 [JYQ-88, (R)-N-(5-(2-Azidoacetyl)-4,5,6,7-tetrahydrothiazolo[5,4-c]pyridin-2-yl)-1-cyanopyrrolidine-3carboxamide]
